In assay [1] the test system is Mycobacterium kansasii 6509/96. The experiment in a line: MIC, micro method in Šula's semisynthetic medium, M. kansasii clinical isolate. It counts as cell-based. The following applies: read-out: MIC M. kansasii 6509/96.
For the next assay, the system named is Mtb 331/88 (i.e., H37Rv). As to the kind of experiment: MIC, micro method in Šula's semisynthetic medium, drug-susceptible Mtb. The class given is cell-based, Mycobacterium tuberculosis. The following applies: Mycobacterium tuberculosis, H37RV.
Assay [2] deals with Mycobacterium avium 330/88. As to the kind of experiment: MIC, micro method in Šula's semisynthetic medium, M. avium. It counts as cell-based.
Where [3] appears, read: 330/88, 336 h, read-out: MIC M. avium 330/88.
Where [4] appears, read: 330/88, 504 h, read-out: MIC M. avium 330/88.

Molecules are shown by their SMILES. Converted amounts (≈) assume the structure as drawn. Where two headings read alike, the source gives them in different places. Bounds are passed on as bounds.

`CCCCCCCCCCCCCCCCCNc1nnc(-c2cc([N+](=O)[O-])cc([N+](=O)[O-])c2)o1` [Compound 5q, 5-(3,5-Dinitrophenyl)-N-heptadecyl-1,3,4-oxadiazol-2-amine]: the MIC was 8 µM (≈ 3.92 µg/mL) in assay [1] (6509/96, 168 h); 16 µM (≈ 7.83 µg/mL) in assay [1] (6509/96, 336 h); 32 µM (≈ 15.7 µg/mL) in assay [1] (6509/96, 504 h); 32 µM (≈ 15.7 µg/mL) against Mtb 331/88 (i.e., H37Rv) (336 h, 14 days); greater than 32 µM in the assay with Mtb 331/88 (i.e., H37Rv) (504 h, 21 days); 32 µM (≈ 15.7 µg/mL) in assay [2] (setting [3]). Further, in assay [2] (setting [4]), the MIC is 64 µM (≈ 31.3 µg/mL).

For the compound `CCCCCCCCCCCCCCCCCCNc1nnc(-c2cc([N+](=O)[O-])cc([N+](=O)[O-])c2)o1` [Compound 5r, 5-(3,5-Dinitrophenyl)-N-octadecyl-1,3,4-oxadiazol-2-amine], the MIC was 64 µM (≈ 32.2 µg/mL) in assay [1] (6509/96, 168 h); 64 µM (≈ 32.2 µg/mL) in assay [1] (6509/96, 336 h); 64 µM (≈ 32.2 µg/mL) in assay [1] (6509/96, 504 h); greater than 32 µM in the assay with Mtb 331/88 (i.e., H37Rv) (336 h, 14 days); greater than 32 µM in the assay with Mtb 331/88 (i.e., H37Rv) (504 h, 21 days); greater than 1000 µM in assay [2] (setting [3]). The MIC in assay [2] (setting [4]) is greater than 1000 µM; in assay [2] (330/88, read-out: MIC M. avium) it was greater than 1000 µM.

In the case of `O=[N+]([O-])c1cc(-c2nnc(NCc3ccccc3)o2)cc([N+](=O)[O-])c1` [Compound 7a, N-Benzyl-5-(3,5-dinitrophenyl)-1,3,4-oxadiazol-2-amine], the MIC in assay [1] (6509/96, 168 h) came out at 0.5 µM (≈ 0.171 µg/mL); in assay [1] (6509/96, 336 h), 1 µM (≈ 0.341 µg/mL); in assay [1] (6509/96, 504 h), 1 µM (≈ 0.341 µg/mL); in the assay on Mtb 331/88 (i.e., H37Rv) (336 h, 14 days) it was 0.125 µM (≈ 0.0427 µg/mL); against Mtb 331/88 (i.e., H37Rv) (504 h, 21 days) it was 0.25 µM (≈ 0.0853 µg/mL); in assay [2] (setting [3]), 4 µM (≈ 1.37 µg/mL). Besides, the MIC in assay [2] (setting [4]) was 4 µM (≈ 1.37 µg/mL).

As for `COc1ccc(CNc2nnc(-c3cc([N+](=O)[O-])cc([N+](=O)[O-])c3)o2)cc1` [Compound 7b, 5-(3,5-Dinitrophenyl)-N-(4-methoxybenzyl)-1,3,4-oxadiazol-2-amine], the MIC in assay [1] (6509/96, 168 h) was no more than 0.03 µM; in assay [1] (6509/96, 336 h) it was no more than 0.03 µM; in assay [1] (6509/96, 504 h), no more than 0.03 µM; against Mtb 331/88 (i.e., H37Rv) (336 h, 14 days), no more than 0.03 µM; in the assay on Mtb 331/88 (i.e., H37Rv) (504 h, 21 days), no more than 0.03 µM; in assay [2] (setting [3]), 2 µM (≈ 0.743 µg/mL). The MIC in assay [2] (setting [4]) worked out at 2 µM (≈ 0.743 µg/mL).

For `O=[N+]([O-])c1cc(-c2nnc(NCc3ccc(Cl)cc3)o2)cc([N+](=O)[O-])c1` [Compound 7c, N-(4-Chlorobenzyl)-5-(3,5-dinitrophenyl)-1,3,4-oxadiazol-2-amine], the MIC in assay [1] (6509/96, 168 h) was 0.125 µM (≈ 0.047 µg/mL); in assay [1] (6509/96, 336 h) it was 0.125 µM (≈ 0.047 µg/mL); in assay [1] (6509/96, 504 h), 0.25 µM (≈ 0.0939 µg/mL); in the assay with Mtb 331/88 (i.e., H37Rv) (336 h, 14 days), 0.125 µM (≈ 0.047 µg/mL); in the assay with Mtb 331/88 (i.e., H37Rv) (504 h, 21 days), 0.125 µM (≈ 0.047 µg/mL); in assay [2] (setting [3]), 1 µM (≈ 0.376 µg/mL). In assay [2] (setting [4]), the MIC was 2 µM (≈ 0.751 µg/mL).

`O=[N+]([O-])c1cc(-c2nnc(NCc3ccc(Cl)cc3Cl)o2)cc([N+](=O)[O-])c1` [Compound 7d, N-(2,4-Dichlorobenzyl)-5-(3,5-dinitrophenyl)-1,3,4-oxadiazol-2-amine]: the MIC in assay [1] (6509/96, 168 h) turned out to be 0.06 µM (≈ 0.0246 µg/mL); in assay [1] (6509/96, 336 h) it was 0.125 µM (≈ 0.0513 µg/mL); in assay [1] (6509/96, 504 h), 0.125 µM (≈ 0.0513 µg/mL); with Mtb 331/88 (i.e., H37Rv) (336 h, 14 days), 0.06 µM (≈ 0.0246 µg/mL); against Mtb 331/88 (i.e., H37Rv) (504 h, 21 days), 0.125 µM (≈ 0.0513 µg/mL); in assay [2] (setting [3]) it was 1 µM (≈ 0.41 µg/mL). For the same compound, in assay [2] (setting [4]), the MIC was 1 µM (≈ 0.41 µg/mL).

Regarding `O=[N+]([O-])c1cc(-c2nnc(NCc3ccc(Br)cc3)o2)cc([N+](=O)[O-])c1` [Compound 7e, N-(4-Bromobenzyl)-5-(3,5-dinitrophenyl)-1,3,4-oxadiazol-2-amine], the MIC was determined as 0.25 µM (≈ 0.105 µg/mL) in assay [1] (6509/96, 168 h); 0.5 µM (≈ 0.21 µg/mL) in assay [1] (6509/96, 336 h); 0.5 µM (≈ 0.21 µg/mL) in assay [1] (6509/96, 504 h); 0.25 µM (≈ 0.105 µg/mL) in the assay with Mtb 331/88 (i.e., H37Rv) (336 h, 14 days); 0.25 µM (≈ 0.105 µg/mL) in the assay on Mtb 331/88 (i.e., H37Rv) (504 h, 21 days); 2 µM (≈ 0.84 µg/mL) in assay [2] (setting [3]). Besides, in assay [2] (setting [4]), the MIC turned out to be 4 µM (≈ 1.68 µg/mL).

With `COc1ccc(CNc2nnc(-c3cc([N+](=O)[O-])cc([N+](=O)[O-])c3)s2)cc1` [Compound 8b, 5-(3,5-Dinitrophenyl)-N-(4-methoxybenzyl)-1,3,4-thiadiazol-2-amine], the MIC is 0.06 µM (≈ 0.0232 µg/mL) in assay [1] (6509/96, 168 h); 0.06 µM (≈ 0.0232 µg/mL) in assay [1] (6509/96, 336 h); 0.125 µM (≈ 0.0484 µg/mL) in assay [1] (6509/96, 504 h); no more than 0.03 µM in the assay on Mtb 331/88 (i.e., H37Rv) (336 h, 14 days); no more than 0.03 µM in the assay on Mtb 331/88 (i.e., H37Rv) (504 h, 21 days); 4 µM (≈ 1.55 µg/mL) in assay [2] (setting [3]). For the same compound, the MIC in assay [2] (setting [4]) turned out to be 4 µM (≈ 1.55 µg/mL).

Regarding `O=[N+]([O-])c1cc(-c2nnc(NCc3ccc(Cl)cc3)s2)cc([N+](=O)[O-])c1` [Compound 8c, N-(4-Chlorobenzyl)-5-(3,5-dinitrophenyl)-1,3,4-thiadiazol-2-amine], the MIC in assay [1] (6509/96, 168 h) is 0.06 µM (≈ 0.0235 µg/mL); in assay [1] (6509/96, 336 h), 0.125 µM (≈ 0.049 µg/mL); in assay [1] (6509/96, 504 h), 0.125 µM (≈ 0.049 µg/mL); in the assay with Mtb 331/88 (i.e., H37Rv) (336 h, 14 days), no more than 0.03 µM; in the assay on Mtb 331/88 (i.e., H37Rv) (504 h, 21 days), no more than 0.03 µM; in assay [2] (setting [3]) it was 2 µM (≈ 0.784 µg/mL). Further, in assay [2] (setting [4]), the MIC is 2 µM (≈ 0.784 µg/mL).

As for `O=[N+]([O-])c1cc(-c2nnc(NCc3ccc(Cl)cc3Cl)s2)cc([N+](=O)[O-])c1` [Compound 8d, N-(2,4-Dichlorobenzyl)-5-(3,5-dinitrophenyl)-1,3,4-thiadiazol-2-amine], the MIC in assay [1] (6509/96, 168 h) was found to be 0.25 µM (≈ 0.107 µg/mL); in assay [1] (6509/96, 336 h), 0.5 µM (≈ 0.213 µg/mL); in assay [1] (6509/96, 504 h) it was 0.5 µM (≈ 0.213 µg/mL); in the assay with Mtb 331/88 (i.e., H37Rv) (336 h, 14 days), 0.125 µM (≈ 0.0533 µg/mL); against Mtb 331/88 (i.e., H37Rv) (504 h, 21 days), 0.125 µM (≈ 0.0533 µg/mL); in assay [2] (setting [3]), 2 µM (≈ 0.852 µg/mL). The MIC in assay [2] (setting [4]) came out at 2 µM (≈ 0.852 µg/mL).
